Like-named read-outs stand apart in the source and are kept apart here.
Tests used:
[1] = test system: Mycobacterium tuberculosis strain H37Rv ΔctaE-ΔqcrCAB; assay: microbe, parasite or virus in culture; type: cell-based; settings: 240 h
[2] = test system: Mitochondrial toxicity (Glu/Gal); assay: Mitochondrial toxicity (Glu/Gal) assay; type: cell-based; design: key to Score: “negative” means that in the test, it was found to have low mitotoxicity (and hence no mitotoxicity alerts); “positive” means that there were some mitotoxicity alerts; “inconclusive” means that no accurate conclusion could be drawn; settings: for Score: mitotoxicity score; for Δ IC50,glu/IC50,gal: ratio glu/gal
From the text: The compounds of the invention/examples may have advantages associated with in vitro potency, kill kinetics (i.e. bactericidal effect) in vitro, PK properties, food effect, safety/toxicity (including liver toxicity, coagulation, 5-LO oxygenase), metabolic stability, Ames II negativity, MNT negativity, aqueous based solubility (and ability to formulate) and/or cardiovascular effect e.g. on animals (e.g. anesthetized guinea pig). The data below that was generated/calculated may be obtained using standard methods/assays, for instance that are available in the literature or which may be performed by a supplier (e.g. Microsomal Stability Assay—Cyprotex, Mitochondrial toxicity (Glu/Gal) assay—Cyprotex, as well as literature CYP cocktail inhibition assays).

[3] = test system: Mycobacterium tuberculosis (strain H37Ra), cyt bd; settings: Mtb H37Ra; for (i) % OCR after cyt bd inhibitor: test compound 10 μM added after Compound X 0.9 μM; for (ii) % OCR after cccp: test compound 10 μM after Compound X 0.9 μM, then CCCP 1 μM
[4] = galactose medium, read-out: IC50, gal
[5] = glucose medium, read-out: IC50, glu

SMILES | IC50 [1] | IC50 [2, 4] | IC50 [2, 5] | Score [2] | Δ IC50,glu/IC50,gal [2] | (i) % OCR after cyt bd inhibitor [3] | (ii) % OCR after cccp [3]
Cc1c(-c2nc3ccc(-c4ccc(OC(F)(F)F)c(F)c4)cn3n2)[nH]c2ccccc2c1=O [Compound 1] | 1.63 µM | 19.8 µM | 100 µM | positive | [x]5.06 | 26.9% | 35.1%
Cc1c(-c2nc3ccc(-c4ccc(OC(F)(F)F)cc4)cn3n2)[nH]c2ccc(F)cc2c1=O [Compound 3] | – | – | – | – | – | 28.75% | 38.75%
Cc1c(-c2nc3ccc(CN4CCC(C(F)(F)F)CC4)cn3n2)[nH]c2ccccc2c1=O [Compound 8] | 3.7 µM | 180 µM | 163 µM | negative | [x]0.91 | 82.67% | 59.43%
Cc1c(-c2nc3ccc(N4CCCC(C(F)(F)F)C4)cn3n2)[nH]c2ccccc2c1=O (centres unmarked) [Compound 9] | 1.31 µM | – | – | – | – | 58.71% | 62.22%
Cc1c(-c2nc3ccc(-c4ccc(F)c(F)c4)cn3n2)[nH]c2ccccc2c1=O [Compound 10] | – | – | – | – | – | 43.4% | 63.9%
Cc1c(-c2nc3ccc(-c4ccc(C(F)(F)F)s4)cn3n2)[nH]c2ccccc2c1=O [Compound 11] | 2.6 µM | – | – | – | – | 62.79% | 69.17%
Cc1c(-c2nc3ccc(N4CCC(OC(F)(F)F)CC4)cn3n2)[nH]c2ccccc2c1=O [Compound 13] | 4.12 µM | 141 µM | 200 µM | negative | [x]1.42 | 61.74% | 83.9%
Cc1c(-c2nc3ccc(-c4cc(C(F)(F)F)nn4C)cn3n2)[nH]c2ccccc2c1=O [Compound 15] | 57 µM | 200 µM | 44.3 µM | negative | [x]0.22 | 91.58% | 94.75%
Cc1c(-c2nc3ccc(N4CCN(CC(F)(F)F)CC4)cn3n2)[nH]c2ccccc2c1=O [Compound 16] | 1.17 µM | 200 µM | 200 µM | negative | [x]0 | 80.34% | 95.29%
Cc1noc(-c2ccc3nc(-c4[nH]c5ccccc5c(=O)c4C)nn3c2)n1 [Compound 17] | > 5 µM | – | – | – | – | 98.64% | 97.68%
Cc1c(-c2nc3ccc(CC(F)(F)F)cn3n2)[nH]c2ccccc2c1=O [Compound 20] | 2.17 µM | 125 µM | 176 µM | negative | [x]1.41 | 78.5% | 102.86%
Cc1c(-c2nc3cc(C(F)(F)F)c(-c4ccccc4)cn3n2)[nH]c2ccccc2c1=O [Compound 21] | 11.4 µM | 50 µM | 50 µM | negative | [x]0 | 81.6% | 103.4%
Cc1c(-c2cn3cc(-c4cccc(OC(F)(F)F)c4)ccc3n2)[nH]c2ccccc2c1=O [Compound 23] | > 100 µM | 200 µM | 200 µM | negative | – | 97.51% | 110.11%
Cc1c(-c2nc3ccc(-c4nc(C(F)(F)F)no4)cn3n2)[nH]c2ccccc2c1=O [Compound 24] | 2.95 µM | 20 µM | 20 µM | negative | [x]0 | 99.13% | 113.29%
CNC(=O)c1c(-c2nc3ccc(-c4nc(C(F)(F)F)cs4)cn3n2)[nH]c2ccccc2c1=O [Compound 27] | > 50 µM | 100 µM | 100 µM | negative | [x]0 | 111.36% | 117.59%
Cc1c(-c2nc3cc(-c4cccc(OC(F)(F)F)c4)ccn3n2)[nH]c2ccccc2c1=O [Compound 28] | 10 µM | 58.7 µM | 100 µM | negative | [x]1.7 | 123.3% | 117.7%
Cc1c(-c2cn3cc(-c4ccc(OC(F)(F)F)cc4)ccc3n2)[nH]c2ccccc2c1=O [Compound 35] | 2.39 µM | – | – | – | – | 102.9% | 129.2%
Cc1c(-c2nc3ccc(-c4ccc(F)cc4)cn3n2)[nH]c2ccccc2c1=O [Compound 36] | – | – | – | – | – | 88.6% | 130.6%
Cc1c(-c2nc3ccc(-c4ncc(C(F)(F)F)s4)cn3n2)[nH]c2ccccc2c1=O [Compound 37] | – | – | – | – | – | 93.8% | 132.68%
Cc1c(-c2nc3ccc(-c4nc(C(F)(F)F)ns4)cn3n2)[nH]c2ccccc2c1=O [Compound 38] | 4.88 µM | – | – | – | – | 95.63% | 132.88%

SMILES | IC50 [1] | IC50 [2, 4] | IC50 [2, 5] | Score [2] | Δ IC50,glu/IC50,gal [2] | (i) % OCR after cyt bd inhibitor [3] | (ii) % OCR after cccp [3]
Cc1c(-c2nc3ccc(N4CCC(C(F)(F)F)CC4)cn3n2)[nH]c2ccccc2c1=O [Compound 47] | – | – | – | – | – | 99.34% | 141.23%
Cc1c(-c2nc3ccc(-c4nc(C(F)(F)F)nn4C)cn3n2)[nH]c2ccccc2c1=O [Compound 49] | > 50 µM | – | – | – | – | 101.3% | 143.58%
CNC(=O)c1c(-c2nc3ccc(-c4ccc(OC(F)(F)F)cc4)cn3n2)[nH]c2ccccc2c1=O [Compound 50] | – | 86.5 µM | 100 µM | negative | [x]1.16 | 114.33% | 144.07%
Cc1c(-c2nc3ccc(N4CCOCC4)cn3n2)[nH]c2ccccc2c1=O [Compound 54] | 5.94 µM | – | – | – | – | – | –
Cc1c(-c2nc3ccc(-c4nnc(C(F)(F)F)s4)cn3n2)[nH]c2ccccc2c1=O [Compound 59] | – | – | – | – | – | 107.31% | 154.34%
Cc1c(-c2nc3ccc(-c4ccc(F)nc4)cn3n2)[nH]c2ccccc2c1=O [Compound 61] | – | – | – | – | – | 108% | 155.2%
Cc1c(-c2nc3ccc(-c4ccc(OC(F)(F)F)cc4)cn3n2)[nH]c2c(F)cc(F)cc2c1=O [Compound 64] | – | – | – | – | – | 109.65% | 158.95%
COc1cc2[nH]c(-c3nc4ccc(-c5ccc(OC(F)(F)F)cc5)cn4n3)c(C)c(=O)c2cc1Cl [Compound 69] | – | – | – | – | – | 150.98% | 165.1%
Cc1csc(-c2ccc3nc(-c4[nH]c5ccccc5c(=O)c4C)nn3c2)n1 [Compound 71] | > 10 µM | – | – | – | – | 95.71% | 167.55%
Cc1c(-c2nc3ccc(-c4cn(C)nn4)cn3n2)[nH]c2ccccc2c1=O [Compound 76] | > 5 µM | – | – | – | – | 111.72% | 175.05%
COc1cc2c(=O)c(C)c(-c3nc4ccc(-c5ccc(OC(F)(F)F)cc5)cn4n3)[nH]c2cc1Cl [Compound 78] | – | – | – | – | – | 135.74% | 178.3%
Cc1c(-c2nc3ccc(-c4cc(F)cc(F)c4)cn3n2)[nH]c2ccccc2c1=O [Compound 88] | 5.35 µM | – | – | – | – | – | 76%
COc1cccc(-c2ccc3nc(-c4[nH]c5ccccc5c(=O)c4C)nn3c2)c1 [Compound 89] | 0.574 µM | – | – | – | – | 55,82% | 62,29%
Cc1ccc(-c2ccc3nc(-c4[nH]c5ccccc5c(=O)c4C)nn3c2)o1 [Compound 91] | 1.74 µM | – | – | – | – | 49,11% | 56,23%
COc1ccc(-c2ccc3nc(-c4[nH]c5ccccc5c(=O)c4C)nn3c2)cc1F [Compound 98] | 1.98 µM | – | – | – | – | 54,17% | 73,86%
Cc1c(-c2nc3ccc(-c4cccc(C(F)F)c4)cn3n2)[nH]c2ccccc2c1=O [Compound 107] | 3.32 µM | – | – | – | – | 58,92% | 76,98%
Cc1c(-c2nc3ccc(-c4cccc(CC(F)F)c4)cn3n2)[nH]c2ccccc2c1=O [Compound 112] | 1.85 µM | – | – | – | – | 31,36% | 38,59%
Cc1c(-c2nc3ccc(-c4ccnn4C)cn3n2)[nH]c2ccccc2c1=O [Compound 116] | 4.59 µM | – | – | – | – | 72,01% | 85,87%
C/C=C(\C=C/C1=NC(c2[nH]c3ccccc3c(=O)c2C)=NC(CC)C1)c1ccc(OC)c(OC)c1 (centres unmarked) [Compound 120] | 0.697 µM | – | – | – | – | 59,83% | 89,24%
Cc1c(-c2nc3ccc(-c4ccc(C(F)(F)F)c(F)c4)cn3n2)[nH]c2ccccc2c1=O [Compound 123] | 4.14 µM | – | – | – | – | 50,75% | –

— patent US20220389008A1, “4-QUINOLINONE ANTIBACTERIAL COMPOUNDS” (Janssen Sciences Ireland Unlimited Company, priority 2019, published 2022)
